Structures can show the parent of a compound that is named as a salt. Active and inactive are the calls of the source. The rule behind the calls is not given here.
What was measured:
A549 = test: Cytotoxicity against human A549 cells after 24 hrs by MTT assay; format: functional, cell-based; conditions: A549, 24 h
MCF7 = test: Cytotoxicity against human MCF7 cells after 24 hrs by MTT assay; format: functional, cell-based; conditions: MCF7, 24 h
PC-3 = test: Cytotoxicity against human PC3 cells after 24 hrs by MTT assay; format: functional, cell-based; conditions: PC-3, 24 h
[1] = target: Voltage-gated L-type calcium channel (Rattus norvegicus, UniProt P22002+Q02485+P27732); test: Inhibition of voltage-dependent L-type calcium channel in Wistar rat 3rd-order mesenteric artery assessed as reduction in norepinephrine-induced vessel contraction by myographic method; conditions: for inhibition (INH): rat
L-type calcium channel [2] = target: T1, L-type calcium channel (Mus musculus, UniProt Q01815+Q02789+Q99246+Q9JIS7); test: Inhibition of voltage-dependent L-type calcium channel in mouse MOVAS cells assessed as reduction in KCl/extracellular Ca2+-induced increase in intracellular calcium level at 0.1 to 0.5 uM pretreated for 10 mins followed by KCl addition by Fluo-3/AM dye based laser scanning microscopic method; format: cell-based
Mus musculus [3] = organism: Mus musculus; test: Vasorelaxant activity in mouse MOVAS1 cells assessed as reduction in KCl-induced increase in intracellular calcium level at 0.1 to 0.5 uM pretreated for 10 mins followed by KCl addition by Fluo-3/AM dye based laser scanning microscopic method; format: functional, cell-based
L-type calcium channel [4] = target: T1, L-type calcium channel; test: Inhibition of voltage-dependent L-type calcium channel in mouse MOVAS cells assessed as reduction in KCl/extracellular Ca2+-induced increase in intracellular calcium level pretreated for 10 mins followed by KCl addition by Fluo-3/AM dye based flow cytometry; format: cell-based
Mus musculus [5] = organism: Mus musculus; test: Vasorelaxant activity in mouse MOVAS1 cells assessed as reduction in KCl-induced increase in intracellular calcium level at 0.1 to 0.5 uM pretreated for 10 mins followed by KCl addition by Fluo-3/AM dye based flow cytometry; format: functional, cell-based
Artery = test: Vasorelaxant activity in Wistar rat endothelium-denuded 3rd-order mesenteric artery assessed as reduction in norepinephrine-induced vessel contraction by myographic method; format: functional, tissue-based

Row | SMILES | IC50 (A549) | IC50 (MCF7) | IC50 (PC-3) | EC50 [1] | inhibition (INH) [1] | inhibition (INH) (L-type calcium channel [2]) | Activity (Mus musculus [3]) | inhibition (INH) (L-type calcium channel [4]) | Activity (Mus musculus [5]) | %max (Artery) | EC50 (Artery; Rattus norvegicus, Wistar, Artery)
1 | C=C1C(=O)[C@@]23C[C@@H]1CC[C@@H]2[C@@]1(C)CCCC(C)(C)[C@@H]1COC3=O | 2.3 µM | 6.6 µM | 11.5 µM |  |  |  |  |  |  |  | 
2 | CC1(C)[C@@H]2[C@@H]3[C@H](CC[C@@]3(C)O)[C@@](C)(O)CC[C@@H]21 | > 40 µM | > 40 µM | > 40 µM |  |  |  |  |  |  |  | 
3 | CC1(C)[C@@H]2[C@H]3[C@H](CC[C@@]3(C)O)[C@](O)(CO)CC[C@@H]21 | > 40 µM | > 40 µM | > 40 µM |  |  |  |  |  |  |  | 
4 | CC(C)=CC(=O)C[C@@]1(C)[C@@H]2[C@H]3[C@@H](C)CC[C@]3(O)[C@@H](C)CC[C@@H]21 | 20.8 µM | 15.1 µM | 13.1 µM |  |  |  |  |  |  |  | 
5 | C=C1C(=O)O[C@H]2C[C@]3(C)CCC=C(C)[C@H]3C[C@@H]12 | > 40 µM | > 40 µM | > 40 µM |  |  |  |  |  |  |  | 
6 | CC1(C)[C@@H]2[C@@H]3[C@H](CC[C@@]3(C)O)C(=O)CC[C@@H]21 | > 40 µM | > 40 µM | > 40 µM |  |  |  |  |  |  |  | 
7 | C=C1C(=O)O[C@H]2C[C@]3(C)CC[C@H](O)C(C)=C3C[C@@H]12 | > 40 µM | > 40 µM | > 40 µM |  |  |  |  |  |  |  | 
8 | C[C@H]1CC[C@@]2(C)C(C(=O)O)=CCC[C@H]2[C@]1(C)CCC1=CCOC1=O | > 40 µM | > 40 µM | > 40 µM | 7.3 µM | Dose-dependent effect |  |  |  |  |  | 
9 | C=C1CC[C@H](C)[C@@](C)(CCC2=CC(OCC)OC2=O)C/C=C\C=C/1C(=O)O (stereo partly specified) | > 40 µM | > 40 µM | > 40 µM | 12 µM | Dose-dependent effect | Active | inactive | Dose-dependent effect | inactive | 20% | 37 µM
10 | C=C1CC[C@H](C)[C@@](C)(CCC2=CC(OC)OC2=O)C/C=C\C=C/1C(=O)O (stereo partly specified) | > 40 µM | > 40 µM | > 40 µM | 22 µM | Dose-dependent effect |  |  |  |  |  | 
11 | COc1cccc2c1C(=O)c1c(O)c3c(c(O)c1C2=O)C[C@@](O)(C(=O)CO)C[C@@H]3O[C@H]1C[C@H](N)[C@H](O)[C@H](C)O1 [DOXORUBICIN HYDROCHLORIDE] | 0.1 µM | 0.4 µM | 0.8 µM |  |  |  |  |  |  |  | 
12 | C=C(C)[C@H]1C[C@H]2C(=C)CCC[C@]2(C)C[C@@H]1O | > 40 µM | > 40 µM | > 40 µM |  |  |  |  |  |  |  | 
13 | C=C1CC[C@H](C)[C@@](C)(CCC2=CC(O)OC2=O)C/C=C\C=C/1C(=O)O (stereo partly specified) | > 40 µM | > 40 µM | > 40 µM | 4.1 µM | Dose-dependent effect |  |  |  |  |  | 
14 | CCOC1C=C(CC[C@]2(C)[C@@H](C)CC[C@@]3(C)C(C(=O)O)=CC=C[C@@H]23)C(=O)O1 (stereo partly specified) | > 40 µM | > 40 µM | > 40 µM | 14 µM | Dose-dependent effect |  |  |  |  |  | 
15 | C=C1CC[C@H](C)[C@@](C)(CCC2=CCOC2=O)C/C=C\C=C/1C(=O)O | > 40 µM | > 40 µM | > 40 µM | 14 µM | Dose-dependent effect |  |  |  |  |  | 
16 | CCOC1C=C(CC[C@]2(C)[C@@H](C)CC[C@@]3(C)C(C(=O)O)=CCC[C@@H]23)C(=O)O1 (stereo partly specified) | > 40 µM | > 40 µM | > 40 µM |  |  |  |  |  |  |  | 
